# “And” between values parts separate entries of the source, which are not always exact repeats. Identical values can stand only once.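 Compound exposure: 48 hours, 5 concentrations, 96-well plates. GI50: concentration for 50% inhibition of growth. The concentration for full growth arrest is given as TGI.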
# Key:
# Assay in all cases: DTP human tumour cell line panel, 48 h
# DMS 273 small cell lung = system: DMS 273 small cell lung
# HOP-62 NSCLC = system: HOP-62 NSCLC
# KM20L2 colon = system: KM20L2 colon
# M19-MEL melanoma = system: M19-MEL melanoma
# SNB-75 CNS = system: SNB-75 CNS
# SNB-78 CNS = system: SNB-78 CNS
# TK-10 renal = system: TK-10 renal
# BT-549 breast = system: BT-549 breast
# HS 578T breast = system: HS 578T breast
# NCI/ADR-RES ovarian = system: NCI/ADR-RES ovarian
structure (smiles),measurement,setting,value
Cc1cc2c(c(C#N)c1C)NC(=O)CCC2=O,TGI,DMS 273 small cell lung,> 100 µM
same,TGI,HOP-62 NSCLC,> 100 µM
same,TGI,KM20L2 colon,> 100 µM
same,TGI,M19-MEL melanoma,> 100 µM
same,TGI,SNB-75 CNS,> 100 µM
same,TGI,SNB-78 CNS,> 100 µM
CC1=C(C)C(=O)c2c(cc3ccc4ccccc4n23)C1=O,TGI,DMS 273 small cell lung,> 100 µM
same,TGI,M19-MEL melanoma,> 100 µM
same,TGI,SNB-75 CNS,> 100 µM
same,TGI,SNB-78 CNS,> 100 µM
same,TGI,TK-10 renal,> 100 µM
O=C(O)c1c(-c2cccc3ccccc23)sc(-c2cccc3ccccc23)c1C(=O)O,TGI,DMS 273 small cell lung,> 100 µM
same,TGI,KM20L2 colon,> 100 µM
same,TGI,M19-MEL melanoma,> 100 µM
same,TGI,SNB-75 CNS,> 100 µM
same,TGI,SNB-78 CNS,> 100 µM
same,TGI,TK-10 renal,> 100 µM
CN1CC[C@@H](c2c(O)cc(O)c3c(=O)cc(-c4ccccc4Cl)oc23)[C@@H](O)C1,GI50,BT-549 breast,0.171 µM and 0.178 µM
same,TGI,DMS 273 small cell lung,0.32 µM
same,GI50,HOP-62 NSCLC,0.117 µM and 0.0384 µM
same,GI50,HS 578T breast,0.0675 µM and 0.11 µM and 0.0213 µM
same,GI50,NCI/ADR-RES ovarian,0.256 µM and 0.0763 µM
same,GI50,SNB-75 CNS,0.0975 µM
same,TGI,SNB-75 CNS,0.25 µM and 0.0894 µM
same,TGI,SNB-78 CNS,> 17.6 µM
same,GI50,TK-10 renal,0.119 µM and 0.0937 µM
same,TGI,TK-10 renal,34.8 µM
CC1OC(OCC2OC(Oc3c(-c4ccc(O)cc4)oc4cc(O)cc(O)c4c3=O)C(OC3OCC(O)(CO)C3O)C(O)C2O)C(O)C(O)C1O (stereo not drawn),TGI,DMS 273 small cell lung,> 100 µM
same,TGI,HOP-62 NSCLC,> 100 µM
same,TGI,KM20L2 colon,> 100 µM
same,TGI,M19-MEL melanoma,61.6 µM
same,TGI,SNB-75 CNS,> 100 µM
same,TGI,SNB-78 CNS,> 100 µM
same,TGI,TK-10 renal,> 100 µM
Cc1ccc(OCC(=O)N2N=C(c3ccccc3)CC2(O)c2ccccc2)cc1 (stereo not drawn),TGI,DMS 273 small cell lung,40.2 µM
same,TGI,HOP-62 NSCLC,46 µM
same,TGI,KM20L2 colon,41.3 µM
same,TGI,M19-MEL melanoma,> 100 µM
same,TGI,SNB-75 CNS,> 100 µM
same,TGI,SNB-78 CNS,51.5 µM
same,TGI,TK-10 renal,> 100 µM
COc1cc(CCc2ccc(OCCN(C)C)cc2)cc(OC)c1OC,TGI,DMS 273 small cell lung,> 100 µM
same,TGI,HOP-62 NSCLC,> 100 µM
same,TGI,KM20L2 colon,> 100 µM
same,TGI,M19-MEL melanoma,> 100 µM
same,TGI,SNB-75 CNS,> 100 µM
same,TGI,SNB-78 CNS,> 100 µM
same,TGI,TK-10 renal,> 100 µM
CC[C@H](C)N(CCN)C(=O)c1cc2ccccc2c(-c2ccccc2Cl)n1,TGI,DMS 273 small cell lung,27.6 µM
same,TGI,HOP-62 NSCLC,33.3 µM
same,TGI,KM20L2 colon,26.6 µM
same,TGI,SNB-78 CNS,31.6 µM
same,TGI,TK-10 renal,25.5 µM
CN1CCN(CN2C(=O)C3C4C=CC(C3C2=O)C2C3C(=O)N(CN5CCN(C)CC5)C(=O)C3C42)CC1 (stereo not drawn),TGI,BT-549 breast,69.6 µM
same,TGI,DMS 273 small cell lung,39.4 µM and 30.9 µM and 10.6 µM
same,TGI,HOP-62 NSCLC,> 100 µM
same,TGI,HS 578T breast,> 100 µM
same,TGI,KM20L2 colon,56.8 µM and 40.9 µM and 63.4 µM
same,TGI,NCI/ADR-RES ovarian,64.5 µM
same,TGI,SNB-75 CNS,79.8 µM and 72.9 µM and 92.1 µM
same,TGI,TK-10 renal,> 100 µM
O=C(O)CSc1n[nH]c(-c2ccc(O)cc2)n1,TGI,DMS 273 small cell lung,> 100 µM
same,TGI,HOP-62 NSCLC,> 100 µM
same,TGI,KM20L2 colon,> 100 µM
same,TGI,M19-MEL melanoma,> 100 µM
same,TGI,SNB-75 CNS,> 100 µM
same,TGI,SNB-78 CNS,> 100 µM
same,TGI,TK-10 renal,> 100 µM
O=C(c1ccccc1)C(C(=O)c1ccccc1)C1(O)C(=O)c2ccccc2C1=O,TGI,DMS 273 small cell lung,> 100 µM
same,TGI,HOP-62 NSCLC,> 100 µM
same,TGI,KM20L2 colon,> 100 µM
same,TGI,M19-MEL melanoma,42.6 µM
same,TGI,SNB-75 CNS,> 100 µM
same,TGI,SNB-78 CNS,> 100 µM
same,TGI,TK-10 renal,55.2 µM
O=C(CNc1nncs1)NO,TGI,DMS 273 small cell lung,> 100 µM
same,TGI,HOP-62 NSCLC,> 100 µM
same,TGI,KM20L2 colon,> 100 µM
same,TGI,M19-MEL melanoma,> 100 µM
same,TGI,SNB-75 CNS,> 100 µM
same,TGI,SNB-78 CNS,> 100 µM
same,TGI,TK-10 renal,> 100 µM
N#Cc1cn(C2OC(CO)C(O)C2O)c2ncnc(N)c12 (stereo not drawn),TGI,DMS 273 small cell lung,0.39 µM and 0.07 µM
same,GI50,HOP-62 NSCLC,0.0533 µM
same,TGI,HS 578T breast,1.33 µM
same,GI50,KM20L2 colon,0.0045 µM
same,TGI,KM20L2 colon,3.42 µM and 12 µM
same,TGI,M19-MEL melanoma,1.56 µM and 7.69 µM
same,GI50,NCI/ADR-RES ovarian,0.0459 µM
same,GI50,SNB-75 CNS,0.232 µM
same,GI50,SNB-78 CNS,0.0736 µM
same,TGI,SNB-78 CNS,> 450 µM
same,GI50,TK-10 renal,0.000405 µM
same,TGI,TK-10 renal,0.0771 µM
CC1=C(C(=O)Nc2ccccc2C)C(c2ccccc2)C(C(=O)Nc2ccccc2C)=C(C)N1,TGI,DMS 273 small cell lung,> 100 µM
same,TGI,HOP-62 NSCLC,> 100 µM
same,TGI,KM20L2 colon,> 100 µM
same,TGI,M19-MEL melanoma,> 100 µM
same,TGI,SNB-75 CNS,> 100 µM
same,TGI,SNB-78 CNS,97.4 µM
same,TGI,TK-10 renal,> 100 µM
CCOc1ccccc1NC(=O)C(=O)CC(=O)c1c(C)n([O-])c2ccccc2[n+]1=O,TGI,DMS 273 small cell lung,> 100 µM
same,TGI,HOP-62 NSCLC,> 100 µM
same,TGI,KM20L2 colon,> 100 µM
same,TGI,M19-MEL melanoma,> 100 µM
same,TGI,SNB-75 CNS,> 100 µM
same,TGI,SNB-78 CNS,> 100 µM
same,TGI,TK-10 renal,> 100 µM
CC1=C(C(=O)Nc2c(C)cccc2C)C(c2ccc3c(c2)OCO3)C(C(=O)Nc2c(C)cccc2C)=C(C)N1,TGI,HOP-62 NSCLC,44 µM
same,TGI,KM20L2 colon,29 µM
same,TGI,SNB-75 CNS,63.1 µM
same,TGI,SNB-78 CNS,78.8 µM
same,TGI,TK-10 renal,62.1 µM
Cc1nc2c(nc1C)C(=O)c1cc(O)ccc1C2=O,TGI,DMS 273 small cell lung,> 100 µM
same,TGI,HOP-62 NSCLC,> 100 µM
same,TGI,KM20L2 colon,> 100 µM
same,TGI,M19-MEL melanoma,22.3 µM
same,TGI,SNB-75 CNS,> 100 µM
same,TGI,SNB-78 CNS,> 100 µM
same,TGI,TK-10 renal,> 100 µM
Nc1nc(SCc2ccccn2)c2ncn(C3CCCC3)c2n1,TGI,BT-549 breast,> 100 µM
same,TGI,HOP-62 NSCLC,> 100 µM
same,TGI,HS 578T breast,88.5 µM
same,TGI,NCI/ADR-RES ovarian,> 100 µM
same,TGI,SNB-75 CNS,> 100 µM
same,TGI,TK-10 renal,> 100 µM
CN(C)c1cccc2c(S(=O)(=O)N[C@H]3CC[C@H]4[C@@H]5CCc6cc(O)ccc6[C@H]5CC[C@]34C)cccc12,GI50,BT-549 breast,2.55 µM
same,TGI,BT-549 breast,6.5 µM
same,GI50,HOP-62 NSCLC,3.97 µM
same,TGI,HOP-62 NSCLC,13.9 µM
same,GI50,HS 578T breast,2.86 µM
same,TGI,HS 578T breast,11.3 µM
same,GI50,NCI/ADR-RES ovarian,2.74 µM
same,TGI,NCI/ADR-RES ovarian,9.9 µM
same,GI50,SNB-75 CNS,1.75 µM
same,TGI,SNB-75 CNS,9.52 µM
same,GI50,TK-10 renal,3.2 µM
same,TGI,TK-10 renal,9.82 µM
